Data as given in US11485987B2, “Methods for inducing bioorthogonal reactivity” (University of Delaware, priority 2015, dated 2022).

Assays:
Assay type in all cases: biochemical
A19V D222G APEX2 = assay: Oxidation of 15 by APEX2 variant A19V D222G APEX2; conditions: 15 40 μM, enzyme 275 nM, PBS with EDTA
Procedure: 15 (40 μM) from methanol stock solutions was added to PBS containing […] EDTA. After 10s, APEX2 (275 nM) was dosed in and oxidation was monitored at 325 nm for 15. The procedure stated above was repeated for F41A APEX2 and A19V D222G APEX2. (FIG. 17).

ferricytochrome C = assay: Background oxidation of DHTZ by ferricytochrome C; conditions: ferricytochrome c two orders of magnitude higher concentration than APEX2
Excerpt: Superoxide has been reported to reduce ferricytochrome C Fe(III) to ferrocytochrome C Fe(II) and O2. Superoxide production during oxidation of DHTZ by APEX2 (SEQ ID NO:1) has been detected by following the reduction of ferricytochrome C Fe(III) to ferrocytochrome C Fe(II) (λmax=550 nm) by UV-Vis spectrometry (FIG. 11C-D). Two wavelengths, 325 nm for tetrazine formation and 550 nm for ferrocytochrome c formation, were followed where reduction of ferricytochrome C by the superoxide byproduct formed during DHTZ oxidation was observed. Addition of SOD stopped the formation of ferrocytochrome C, thus confirming that superoxide is formed during oxidation of DHTZ by APEX2 (SEQ ID NO:1). A stoichiometric background oxidation of DHTZ by ferricytochrome C was observed where the rate of the oxidation of 15 by ferricytochrome c was 2× slower than APEX2 (SEQ ID NO:1) at ferricytochrome c concentrations two orders of magnitude higher than APEX2 (SEQ ID NO:1). While oxidation of DHTZ by cytochrome C is not catalytic or feasible for intracellular applications, it does confirm that DHTZ undergoes two successive one-electron oxidations as cytochrome C cannot oxidize substrates by two-electron oxidations.
15 (10 μM) from stock solution was added to PBS containing 100 μM EDTA. Ferricytochrome C (60 μM) was dosed in after 10 seconds followed by addition of APEX2 (SEQ ID NO:1) ([…]). […]

[1] = target: T1, horseradish peroxidase (HRP) (Armoracia rusticana, UniProt P00433); assay: Horseradish peroxidase (HRP) catalyzed oxidation of DHTz to tetrazine; conditions: HRP 15 nM; for Rate of HRP Oxidation of 3a: first 10 seconds
T1 sequence (P00433 31-338): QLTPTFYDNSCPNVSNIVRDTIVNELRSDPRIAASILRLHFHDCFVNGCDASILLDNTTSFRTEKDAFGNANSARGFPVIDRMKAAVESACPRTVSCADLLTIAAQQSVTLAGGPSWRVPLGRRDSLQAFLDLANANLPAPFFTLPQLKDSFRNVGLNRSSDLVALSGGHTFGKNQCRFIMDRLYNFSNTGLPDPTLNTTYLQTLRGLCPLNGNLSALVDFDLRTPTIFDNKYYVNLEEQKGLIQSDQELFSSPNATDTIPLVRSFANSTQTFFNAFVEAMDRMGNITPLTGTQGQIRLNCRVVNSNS
Procedure: Upon addition of horseradish peroxidase (15 nM) the UV-vis spectrum was monitored every 10 seconds. With 50% conversion after 100 seconds, complete conversion of 3a to 4a is observed after 600 seconds, as evidenced by the decrease in the absorption at 292 nm and increase at 325 nm with an isosbestic point at 303 nm. Similar spectral changes are observed when 3a is electrochemically oxidized to 4a in aqueous solution, or when the oxidation of 3a to 4a is photocatalyzed by methylene blue. […] Methylene blue was considered a particularly attractive sensitizer due to its clinical relevance, low molecular weight, low toxicity, high solubility, and an absorption spectrum (λmax 665 nm) that extends to the near IR. Further, methylene blue has previously been explored for applications in photodynamic therapy based on oxidation of indole-3-acetic acid. Rose bengal (λmax 550 nm), used in a range of biomedical applications, was also identified as an excellent sensitizer. […] Methylene blue (4 μM) also catalyzed the conversion of 3a to 4a in the presence of ambient light, with 47% conversion noted after 2 h. […] The mechanism of photooxidation more likely involves electron transfer and is the subject of ongoing study.
As a complement to these photocatalyzed reactions, the inventors observed that HRP can efficiently catalyze the oxidation of 3a in the dark at low enzyme concentration (15 nM) (FIG. 4). While HRP typically requires H2O2 as the terminal oxidant, the addition of HRP to a peroxide-free solution of 3a (30 μM) in PBS led to the rapid formation of 4a (FIG. 4, panel B). […] Neither cytochrome c nor hemoglobin were effective catalysts of DHTz oxidation, with only slow conversion of 3a to 4a even with heme concentrations that were nearly 3 orders of magnitude higher than that used with HRP.
Solutions (1 mL) containing 3a (30 μm) in PBS buffer were prepared in a cuvette from stock solutions. Oxidation of 3a to 4a was monitored by recording absorbance at 325 nm every 10 seconds while either hydrogen peroxide (2 mM), HRP (15 nM) or both were added (FIG. 4, panel B). For the superoxide dismutase experiment, HRP (15 nM) was added followed by SOD (770 nM) 40 seconds later (FIG. 4, panel C). For the kinetics experiments, solutions (1 mL) containing 3a in PBS buffer with EDTA (2 mM) were prepared in the following concentrations of 3a: 9, 17, 34, 50, 83, 150 and 200 μM. The oxidation rate was determined by observing the conversion of 3a to 4a in the first 10 seconds after mixing in HRP (15 nM) and subtracting the background oxidation prior to the addition of HRP.

[2] = target: T1, horseradish peroxidase (HRP); assay: as above; conditions: [3a] 8 μM; HRP 15 nM; first 10 seconds

| time to complete conversion of 3a to 4a [1] [s] | conversion of 3a to 4a ([1]; after 100 seconds) [%] | Rate of HRP Oxidation of 3a ([1]; [3a] 17 μM) [M/s] | Rate of HRP Oxidation of 3a ([1]; [3a] 34 μM) [M/s] | Rate of HRP Oxidation of 3a ([1]; [3a] 50 μM) [M/s] | Rate of HRP Oxidation of 3a ([1]; [3a] 83 μM) [M/s] | Rate of HRP Oxidation of 3a ([1]; [3a] 150 μM) [M/s] | Rate of HRP Oxidation of 3a ([1]; [3a] 200 μM) [M/s] | Rate of HRP Oxidation of 3a [2] [M/s] | Compound | oxidation by A19V D222G APEX2 (tetrazine formation at 325 nm) (A19V D222G APEX2) | rate of oxidation by ferricytochrome c slower than APEX2 (ferricytochrome C) [×] |
| --- | --- | --- | --- | --- | --- | --- | --- | --- | --- | --- | --- |
|  |  |  |  |  |  |  |  |  | O=C(O)CCCC(=O)Nc1ccc(C2=NNC(c3ccccn3)=NN2)nc1 [compound 15] | can oxidize 15 | 2 |
| 600 | 50 | 5.6e-08 | 8.9e-08 | 1.2e-07 | 2.1e-07 | 2.5e-07 | 2.6e-07 | 3.4e-08 | O=C(O)CCC(=O)Nc1ccc(C2=NNC(c3ccccn3)=NN2)nc1 [3a, 4-oxo-4-((6-(6-(pyridin-2-yl)-1,4-dihydro-1,2,4,5-tetrazin-3-yl)pyridin-3-yl)amino)butanoic Acid] |  |  |
